Measurements as given in patent publication US20250276955A1, “CORONAVIRUS MAIN PROTEASE INHIBITORS AND METHODS USING SAME” (Baylor College of Medicine, priority 2021, published 2025).
Converted amounts (≈) assume the structure as drawn. “Also recorded” adds a separate entry of the source.

How the values were obtained:
[1] = Plasma stability assay, human plasma; assay type: in vitro ADME; settings: 10 μM, 37° C., after 2 h incubation
Protocol: (§1) Compound CDD-1713 and CDD-1976 were incubated in human and mouse plasma respectively at a concentration of 10 μM in duplicate (n=2) at 37° C. At time-points of 0, 30, 60 and 120 min, 15 μL of sample were taken out and the reactions terminated by adding 75 μL of ice-cold methanol. The reaction mixtures were then vortexed for 30 sec and centrifuged at rcf 15,000 for 15 min. Following centrifugation, 3 μL of the supernatant was analyzed using UHPLC-Q Exactive Orbitrap MS. The percentage of test compound remaining at the individual time points relative to the 0 min sample was then determined.

[2] = Apparent solubility in PBS buffer; settings: PBS buffer with 2% DMSO, aqueous buffer, kinetic from dmso stock
[3] = target: SARS-CoV-2 main protease (M^pro) (Severe acute respiratory syndrome coronavirus 2, UniProt P0DTD1); test: Protein thermal shift stability assay (SYPRO Orange); assay type: binding
[4] = Metabolic stability in mouse liver microsomes; assay type: in vitro ADME
Procedure, shortened: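 Mouse or human liver microsomal incubations sampled in duplicate at 0, 30 and 60 min, quenched with equal volume ice-cold methanol. Supernatant analysed by UHPLC-Orbitrap MS, C18 column at 40° C, positive ESI, m/z 80–1,200.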

[5] = Plasma stability assay, mouse plasma; assay type: in vitro ADME; settings: 10 μM, 37° C., after 2 h incubation
Protocol: as §1

SARS-COV-2 M^pro-His6 = SARS-COV-2 M^pro-His6 (Severe acute respiratory syndrome coronavirus 2, UniProt P0DTD1); test: biochemical; assay type: biochemical; settings: 25 nM enzyme, 15 μM fluorescent peptide, Morrison equation; Inactive = less than 50% inhibition at 25 μM compound; read-out: M^pro-His Ki

SMILES: COc1cc(-c2cccc3[nH]ncc23)cc(C=O)c1OCC(=O)N(C)C [CDD-1713, 2-(2-formyl-4-(1H-indazol-4-yl)-6-methoxyphenoxy)-N,N-dimethylacetamide]
- compound remaining in human plasma [1]: 80%
- solubility [2]: 157 µM (≈ 55.4 µg/mL)
- stabilization of M^pro in thermal shift assay (in words) [3]: stabilized; also recorded: concentration-dependent stabilization
- ΔTm of Mpro at 50 μM compound conc. ([3]; 50 μM compound, […]): 2.99 °C
- MLM t1/2 ([4]; Table 4): 8.4 min
- microsomal CLint at 2 μM ([4]; mouse, liver microsomes): 147 µL/min/mg
- metabolic stability in mouse liver microsomes (in words) ([4]; mouse, microsomes): metabolically labile
- compound remaining in mouse plasma [5]: 80%
- Ki (SARS-COV-2 M^pro-His6): 44.8 ± 2.9 nM
